Laboratory results taken from patent publication US20260297165A1, “COMPOSITIONS AND METHODS FOR EXPRESSING THERAPEUTICS” (priority 2023, published 2026).

How the values were obtained:
[1] = test system: Hep1c1c7 cells; assay: Cell lysis inhibition assay (normal human serum, WST-8); format: cell-based; conditions: NHS dose causing 70% cell lysis
Experimental: To test biological function of sCD59, cell lysis inhibition assay was performed using Hep1c1c7 cells. The serum dose causing approximately 70% cell lysis was determined for the new normal human serum (NHS) before the purified sCD59 proteins were used for cell lysis inhibition assay. Three hours prior to the experiment, 1×10^4 cells per well were seeded onto a 96-well plate. Various doses of NHS were mixed with GVB2++ buffer (with Ca^2+ and Mg^2+) (Complement Technology, Cat. B100). 100 μL of mixture was added to each well. Background lysis was measured using GVB2++ buffer only and maximum lysis was measured by lysing all the cells with Maximum Lysis Buffer (GVB2++ plus 1% SDS). […] The absorbance at 450 nm was measured using a microplate reader. To calculate the percentage of live cells, the absorbance was subtracted by the Max Lysis, divided by Background Lysis minus Max Lysis and multiplied by 100, which equaled the % of live cells. The % of dead cells was calculated by subtracting 100 by the % of live cells. In the GraphPad Prism, the % of cell death was plotted against dose of NHS, and the dose of NHS causing 50% and 70% hemolysis was respectively determined (FIG. 15A). […]
To test biological function of vsCD59, cell lysis inhibition assay is performed using Hep1c1c7 cells. […] The absorbance at 450 nm is measured using a microplate reader. […]

[2] = molecular target: C3b (Homo sapiens, UniProt P01024); assay: Binding affinity to C3b by Biacore
C3b, sequence (P01024 23-667 limits assumed): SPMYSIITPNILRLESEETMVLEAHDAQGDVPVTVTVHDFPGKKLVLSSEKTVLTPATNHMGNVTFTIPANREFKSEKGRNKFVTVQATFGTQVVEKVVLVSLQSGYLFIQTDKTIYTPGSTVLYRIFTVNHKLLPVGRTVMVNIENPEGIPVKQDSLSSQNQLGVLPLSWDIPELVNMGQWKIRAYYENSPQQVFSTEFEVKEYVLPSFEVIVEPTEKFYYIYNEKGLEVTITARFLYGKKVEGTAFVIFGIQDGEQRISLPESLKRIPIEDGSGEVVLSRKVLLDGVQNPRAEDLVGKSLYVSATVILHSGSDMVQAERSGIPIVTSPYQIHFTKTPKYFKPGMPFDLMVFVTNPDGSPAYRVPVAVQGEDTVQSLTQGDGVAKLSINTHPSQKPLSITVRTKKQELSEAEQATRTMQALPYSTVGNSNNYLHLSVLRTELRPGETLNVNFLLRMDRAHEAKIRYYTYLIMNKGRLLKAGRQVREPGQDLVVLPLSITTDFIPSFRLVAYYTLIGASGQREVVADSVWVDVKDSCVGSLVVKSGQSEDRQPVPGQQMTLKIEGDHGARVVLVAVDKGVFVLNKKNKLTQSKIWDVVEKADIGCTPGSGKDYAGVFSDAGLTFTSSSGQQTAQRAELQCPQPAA
C3b, sequence (P01024 749-1663 partner limits assumed): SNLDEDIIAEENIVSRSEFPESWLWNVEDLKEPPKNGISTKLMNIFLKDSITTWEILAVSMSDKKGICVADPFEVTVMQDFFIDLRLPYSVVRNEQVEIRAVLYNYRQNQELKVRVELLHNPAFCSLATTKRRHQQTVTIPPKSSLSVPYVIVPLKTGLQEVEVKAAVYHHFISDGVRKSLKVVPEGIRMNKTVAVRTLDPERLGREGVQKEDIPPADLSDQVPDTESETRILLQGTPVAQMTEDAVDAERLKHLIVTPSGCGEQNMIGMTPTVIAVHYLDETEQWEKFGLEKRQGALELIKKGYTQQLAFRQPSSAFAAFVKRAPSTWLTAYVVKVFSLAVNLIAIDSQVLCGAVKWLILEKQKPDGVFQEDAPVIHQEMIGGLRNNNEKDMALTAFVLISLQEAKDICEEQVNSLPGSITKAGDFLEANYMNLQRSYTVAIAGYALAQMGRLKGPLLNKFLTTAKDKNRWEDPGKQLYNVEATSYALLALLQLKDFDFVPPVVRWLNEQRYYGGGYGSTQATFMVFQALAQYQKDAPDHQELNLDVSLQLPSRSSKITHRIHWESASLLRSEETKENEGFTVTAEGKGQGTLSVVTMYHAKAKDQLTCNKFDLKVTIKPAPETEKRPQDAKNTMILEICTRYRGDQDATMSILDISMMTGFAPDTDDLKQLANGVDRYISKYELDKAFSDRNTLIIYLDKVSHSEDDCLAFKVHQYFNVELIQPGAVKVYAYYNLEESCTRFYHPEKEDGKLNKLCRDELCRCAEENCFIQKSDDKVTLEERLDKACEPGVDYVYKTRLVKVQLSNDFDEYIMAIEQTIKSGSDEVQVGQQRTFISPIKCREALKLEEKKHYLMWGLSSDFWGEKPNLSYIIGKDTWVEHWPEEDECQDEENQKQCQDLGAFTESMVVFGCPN
Experimental: (§1) The estimated IC50 of the C3i fusion proteins were measured as shown above. Next their binding affinity with Complement C3b, C3c, and C3 was tested. Binding affinity was measured using Biacore. Biosensor analysis was performed at room temperature in a running buffer (1×HBS, 20 mM NaH2PO4-Na2HPO4·H2O, 150 mM NaCl, pH 7.4, supplemented with 0.005% (v/v) surfactant P20), using a Biacore 3000 optical biosensor equipped with a research-grade CM5 sensor chip. C3, C3b and C3c proteins were immobilized in flow cell 2 or 4 via standard amine coupling, leaving Fc1 or 3 unmodified to serve as a reference surface. The immobilization levels of proteins were calculated using Rmax=100 RU and the ratio of ligand molecular weight/analyte molecular. Data analysis was conducted using the BIAevaluation software. All sensorgrams were double-referenced by subtracting the response on a reference flow cell and a blank sample. Five 2× serial dilution samples were injected sequentially from low concentration to high concentration of proteins at a flow rate of 30 μL/min (300 seconds for each), followed by a dissociation time of 900 seconds. Calculations of kinetic parameters were conducted assuming a simple 1:1 (Langmuir) binding.
(§2) After the testing concentrating was optimized for individual proteins, they were applied on the immobilized chip, and association rate constant (Ka, M^−1s^−1), dissociation constant (Kd, s^−1), equilibrium dissociation constant (KD, M), maximal feasible signal (Rmax), and chi^2 were recorded. The results for complement C3b, C3c, and C3 are listed in Table 22, Table 23, and Table 24, respectively. […] The estimated IC50 of C3i and its fusion proteins and their binding affinity (KD) against C3b, C3c, and C3 are shown in Table 25. When KD values were plotted against estimated IC50, they correlated well with each other for C3b (FIG. 23A) and C3c (FIG. 23B) and, in most cases, for C3 (FIG. 23C).

[3] = molecular target: T1, C3c (Homo sapiens, UniProt P01024); assay: Binding affinity to C3c by Biacore
T1 construct: C3, C3b and C3c proteins were immobilized in flow cell 2 or 4
T1 sequence (P01024 23-667 limits assumed): as the sequence (P01024 23-667 limits assumed) above
T1 sequence (P01024 749-954 partner limits assumed): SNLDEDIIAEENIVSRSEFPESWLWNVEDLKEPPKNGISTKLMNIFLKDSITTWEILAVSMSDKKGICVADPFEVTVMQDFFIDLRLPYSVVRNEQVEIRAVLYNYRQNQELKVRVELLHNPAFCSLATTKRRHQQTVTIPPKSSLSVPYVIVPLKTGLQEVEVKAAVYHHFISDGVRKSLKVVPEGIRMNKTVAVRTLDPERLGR
T1 sequence (P01024 1321-1663 partner limits assumed): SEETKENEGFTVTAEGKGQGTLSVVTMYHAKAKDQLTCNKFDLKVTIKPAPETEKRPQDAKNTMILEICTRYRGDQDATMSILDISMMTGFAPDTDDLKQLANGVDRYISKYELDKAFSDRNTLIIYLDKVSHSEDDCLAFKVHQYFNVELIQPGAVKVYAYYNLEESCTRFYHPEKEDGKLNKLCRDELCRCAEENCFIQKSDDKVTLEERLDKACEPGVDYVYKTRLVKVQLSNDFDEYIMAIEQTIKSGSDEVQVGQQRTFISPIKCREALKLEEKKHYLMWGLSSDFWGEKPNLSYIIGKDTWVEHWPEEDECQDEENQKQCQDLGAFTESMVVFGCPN

[4] = molecular target: C3 (Homo sapiens, UniProt P01024); assay: Binding affinity to C3 by Biacore
C3, sequence (P01024 23-1663): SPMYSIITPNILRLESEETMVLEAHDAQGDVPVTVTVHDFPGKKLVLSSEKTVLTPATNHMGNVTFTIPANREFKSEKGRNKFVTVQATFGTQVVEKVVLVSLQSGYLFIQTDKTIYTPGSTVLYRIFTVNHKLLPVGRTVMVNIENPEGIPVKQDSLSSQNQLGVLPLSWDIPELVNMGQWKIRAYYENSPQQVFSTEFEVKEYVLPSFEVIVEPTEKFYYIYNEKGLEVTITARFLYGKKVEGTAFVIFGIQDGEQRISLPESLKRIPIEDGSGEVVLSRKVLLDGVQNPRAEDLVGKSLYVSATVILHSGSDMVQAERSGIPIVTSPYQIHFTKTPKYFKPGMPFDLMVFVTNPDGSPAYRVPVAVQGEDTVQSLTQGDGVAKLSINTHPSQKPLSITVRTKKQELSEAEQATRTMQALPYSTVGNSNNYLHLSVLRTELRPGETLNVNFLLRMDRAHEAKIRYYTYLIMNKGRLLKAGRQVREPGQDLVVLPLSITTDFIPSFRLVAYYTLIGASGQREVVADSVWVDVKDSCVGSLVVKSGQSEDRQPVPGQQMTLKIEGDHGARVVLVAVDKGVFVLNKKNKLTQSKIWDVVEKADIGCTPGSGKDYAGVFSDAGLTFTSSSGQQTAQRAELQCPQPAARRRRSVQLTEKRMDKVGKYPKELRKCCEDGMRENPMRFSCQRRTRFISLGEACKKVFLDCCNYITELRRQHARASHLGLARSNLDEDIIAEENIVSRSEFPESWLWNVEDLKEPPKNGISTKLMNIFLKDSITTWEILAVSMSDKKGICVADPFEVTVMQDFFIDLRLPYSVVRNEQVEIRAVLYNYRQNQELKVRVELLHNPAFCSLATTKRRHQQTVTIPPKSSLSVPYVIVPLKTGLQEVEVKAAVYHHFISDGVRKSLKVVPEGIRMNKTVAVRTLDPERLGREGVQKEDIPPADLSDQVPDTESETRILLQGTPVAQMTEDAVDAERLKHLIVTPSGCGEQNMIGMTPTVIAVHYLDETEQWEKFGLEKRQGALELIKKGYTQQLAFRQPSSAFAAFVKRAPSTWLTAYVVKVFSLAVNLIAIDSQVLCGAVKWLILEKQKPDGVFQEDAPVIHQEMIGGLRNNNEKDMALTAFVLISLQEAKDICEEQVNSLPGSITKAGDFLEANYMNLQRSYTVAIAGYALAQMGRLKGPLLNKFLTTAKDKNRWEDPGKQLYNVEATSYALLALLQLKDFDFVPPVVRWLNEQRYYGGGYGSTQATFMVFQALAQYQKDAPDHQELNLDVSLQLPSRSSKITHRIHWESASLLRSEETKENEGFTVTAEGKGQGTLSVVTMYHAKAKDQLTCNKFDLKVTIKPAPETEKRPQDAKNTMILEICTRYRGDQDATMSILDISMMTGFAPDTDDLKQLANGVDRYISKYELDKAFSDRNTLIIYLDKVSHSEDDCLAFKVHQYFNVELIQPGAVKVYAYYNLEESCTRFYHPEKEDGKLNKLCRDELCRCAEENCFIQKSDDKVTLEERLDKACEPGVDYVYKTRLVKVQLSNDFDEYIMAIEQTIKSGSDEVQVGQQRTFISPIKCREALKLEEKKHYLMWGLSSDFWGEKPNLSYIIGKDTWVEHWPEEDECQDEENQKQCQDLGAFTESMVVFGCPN
Experimental: as §1, §2

[5] = test system: rabbit erythrocytes; assay: Hemolysis inhibition assay with rabbit erythrocytes and normal human serum; format: cell-based
Experimental: In parallel, serum dose causing approximately 70% hemolysis was determined for new normal human serum (NHS) before the purified proteins were used for a hemolysis inhibition assay. Various doses of NHS were mixed with rabbit erythrocytes (Cat. B300, Complement Technology) in the presence of 0.1 M Mg2+ EGTA (Cat. B106, Complement Technology). Background lysis was measured using GVBE (GVBo plus 20 mM EDTA, pH 7.4), and maximum lysis was measured by lysing all the cells with Maximum Lysis Buffer (GVBo+0.2% NP40). After all the samples were mixed on ice, they were transferred to 37° C. water bath. The samples were vortexed every 5 minutes and incubated for 30 minutes in total. 1 mL of cold GVBE was added into each tube to stop the reaction. After samples were centrifuged for 3 min at approximately 1000× g to pellet cells, the supernatant was transferred to a cuvette and read at 412 nm in SpectaMax iD3 microplate reader. Each reading was normalized to the background, divided by Max Lysis minus background, and multiplied by 100, which equaled % of Max Lysis. Using the GraphPad Prism software, the % of Max Lysis was plotted against microliters of NHS, and the dose of NHS causing 50% and 70% hemolysis was respectively determined.
Using the NHS dose causing 70% hemolysis, the purified mutant proteins were utilized for a hemolysis inhibition assay. All mutant proteins were 2× serially diluted and mixed with the rabbit erythrocytes in the presence of NHS, resulting in the final concentration of […], 4.10, 2.05, and 1.02 μM of each mutant protein. The benchmark, CP40 peptide, was also used in this study. After each reading was subtracted from the background, it was divided by 70% hemolysis minus background and multiplied by 100. The value was considered as % of hemolysis inhibition. The percentage of hemolysis inhibition was plotted against the molecular concentration of mutant proteins by GraphPad Prism software and IC50 value was estimated based on the data plotting.

[6] = test system: NIH-3T3 cells; assay: cGMP production in NIH-3T3 cells; format: cell-based

Kd ([2]; Affinity to C3b KD, C3b, Biacore, Table 25): 0.32 nM
Rmax (maximal feasible signal) ([2]; C3b immobilized): 3.18
Chi^2 ([2]; C3b immobilized, fit): 0.12
Kd ([2]; KD, C3b immobilized, 1:1 (Langmuir) binding): 0.324 nM
Kd [3]: 0.509 nM
Chi^2 ([3]; chi^2 of fit, C3c, Biacore): 0.05
Rmax ([3]; maximal feasible signal, C3c, Biacore): 4.65
Kd ([4]; Affinity to C3 KD, Table 25): 0.63 nM
Kd ([4]; KD, equilibrium dissociation constant, room temperature, pH 7.4): 0.629 nM
Chi^2 ([4]; chi^2 of fit): 0.10
Rmax ([4]; maximal feasible signal): 25.70
SMILES: CC[C@H](C)[C@H](NC(=O)[C@H](N)Cc1ccc(O)cc1)C(=O)N[C@H]1CSSC[C@@H](C(=O)N(C)[C@H](C(N)=O)[C@@H](C)CC)NC(=O)[C@H](CCCNC(=N)N)NC(=O)[C@H](Cc2c[nH]cn2)NC(=O)[C@H](C)NC(=O)CN(C)C(=O)[C@H](Cc2c[nH]c3ccccc23)NC(=O)[C@H](CC(=O)O)NC(=O)[C@H](CCC(N)=O)NC(=O)[C@H](Cc2cn(C)c3ccccc23)NC(=O)[C@H](C(C)C)NC1=O [CP40]
cell lysis inhibition [1]: marginal inhibition
Estimated IC50 of hemolysis inhibition ([5]; NHS dose causing 70% hemolysis): 780 nM
Bioactivity IC50 Change ([5]; change of estimated IC50 relative to CP40): 1 fold
IC50 ([5]; estimated IC50, read-out: Bioactivity IC50): 780 nM
cGMP production [6]: not
